In the Deep4Chem optical property database:
Blank lines part the entries; values can stand above or below the compound they belong to.

Assay: solvent given as SMILES

SMILES: COc1ccc(-c2nc(C(C)=O)c(C)o2)cc1
absorption maximum (in CC#N): 278 nm | absorption maximum (in CCCCCC): 278 nm | absorption maximum (in CCO): 277 nm | absorption maximum (in CCOC(C)=O): 279 nm | absorption maximum (in CCOCC): 276 nm | absorption maximum (in ClCCl): 277 nm

absorption maximum (in CC1CCCCC1): 336 nm | absorption maximum (in CC#N): 343 nm | absorption maximum (in CO): 346 nm
SMILES: COC(=O)C(NC(=O)OC(C)(C)C)c1ccc2oc(-c3ccc(N(C)C)cc3OC)nc2c1 (centres undefined)

SMILES: CC1CCC(O)(c2ccc(-c3cccs3)s2)CC1 (centres undefined)
absorption maximum (in C1CCOC1): 341 nm | absorption maximum (in CC#N): 341 nm | absorption maximum (in CCCCCC): 341 nm | absorption maximum (in CCO): 341 nm | absorption maximum (in OCCOCCO): 345 nm | absorption maximum (in c1ccncc1): 345 nm

absorption maximum (in ClCCl): 372 nm
SMILES: CCCCN1C(=O)c2cccc3c(C#CC#Cc4ccc5c6c(cccc46)C(=O)N(CCCC)C5=O)ccc(c23)C1=O

absorption maximum (in ClCCl): 334 nm
SMILES: c1ccc2c(-n3c(-c4ccc(-c5ccc(-c6nc7c8ccccc8c8ccccc8c7n6-c6cccc7ccccc67)c6ccccc56)c5ccccc45)nc4c5ccccc5c5ccccc5c43)cccc2c1

SMILES: FC(F)(F)c1ccc(/C=C/c2ccc(-c3nnc(-c4ccc(-c5cc6ccccc6s5)cc4)o3)cc2)cc1
absorption maximum (in CC#N): 333 nm | absorption maximum (in CC(C)=O): 342 nm | absorption maximum (in CCCCCCCC): 337 nm | absorption maximum (in CCCCCCCCCCO): 340 nm | absorption maximum (in CCCCCCCCO): 342 nm | absorption maximum (in CCCCCO): 341 nm | absorption maximum (in CCCO): 340 nm | absorption maximum (in CN(C)C=O): 345 nm | absorption maximum (in CO): 337 nm | absorption maximum (in CS(C)=O): 342 nm

absorption maximum (in C1CCCCC1): 332 nm
SMILES: CCC(C)(C)c1ccc2c(c1)C(CC)(CC)c1cc(-c3ccc(-c4ccc5c(c4)C(CC)(CC)c4cc(C(C)(C)CC)ccc4-5)cc3)ccc1-2

absorption maximum (in ClCCl): 366 nm
SMILES: COc1cc(OC)cc(-c2ccc(C3=CC(c4ccccc4)=C(c4ccccc4)C3)cc2)c1

absorption maximum (in ClCCl): 410 nm
SMILES: CCN(CC)c1ccc2c(c1)oc(=O)c1c(C)nc3c(c(-c4ccccc4)nn3-c3ccccc3)c12

SMILES: CC1(C)c2ccccc2N(c2ccc3c(c2)c(=O)c2cccc4c(=O)c5cc(N6c7ccccc7C(C)(C)c7ccccc76)ccc5n3c24)c2ccccc21
absorption maximum (in Cc1ccccc1): 432.96 nm

absorption maximum (in ClC(Cl)Cl): 430 nm
SMILES: CN1CCc2cc(C3=Cc4cccc[n+]4[B-](F)(F)O3)ccc21

SMILES: N#Cc1c(-n2c3ccccc3c3cc(Br)ccc32)c(C#N)c(-n2c3ccccc3c3cc(Br)ccc32)c(-n2c3ccccc3c3cc(Br)ccc32)c1-n1c2ccccc2c2cc(Br)ccc21
absorption maximum (in Cc1ccccc1): 381 nm

SMILES: COc1ccc2c3c(cccc13)C(=O)c1ccccc1-2
absorption maximum (in CC(C)=O): 421.05 nm | absorption maximum (in CCCCOCCCC): 412.03 nm | absorption maximum (in CCOC(C)=O): 418.06 nm | absorption maximum (in CCOCC): 414.08 nm | absorption maximum (in Clc1ccccc1): 423.01 nm | absorption maximum (in O=C1CCCCC1): 421.94 nm

absorption maximum (in C1CCCCC1): 400 nm | absorption maximum (in CC#N): 431 nm | absorption maximum (in CCO): 437 nm | absorption maximum (in c1ccccc1): 420 nm
SMILES: CN(C)c1ccc2c(c1)-c1ccccc1C2=O

absorption maximum (in C1CCOC1): 367 nm
SMILES: CC1(C)c2ccccc2N(c2ccc3c(c2)c2cc(N4c5ccccc5C(C)(C)c5ccccc54)cc4c5ccccc5n3c42)c2ccccc21

SMILES: F[B-]1(F)n2cccc2C(c2c3ccccc3c(-c3ccccc3)c3ccccc23)=C2C=CC=[N+]21
absorption maximum (in CC#N): 502 nm | absorption maximum (in CCCCCC): 509 nm | absorption maximum (in CCO): 504 nm | absorption maximum (in CN(C)C=O): 506 nm | absorption maximum (in Cc1ccccc1): 509 nm | absorption maximum (in ClCCl): 506 nm

SMILES: COc1ccc(N(c2ccc(/C=C(\C)c3ccccc3)cc2)c2ccc(/C=C(\C)c3ccccc3)cc2)cc1
absorption maximum (in Cc1ccccc1): 364 nm

SMILES: c1ccc(-c2ccc(-c3nc(-n4c5ccccc5c5ccc6c7ccccc7n(-c7ccccc7)c6c54)nc(-n4c5ccccc5c5ccc6c7ccccc7n(-c7ccccc7)c6c54)n3)cc2)cc1
absorption maximum (in Cc1ccccc1): 403 nm

absorption maximum (in C1CCOC1): 340 nm
SMILES: CCC1(CC)c2cc(-c3cccs3)ccc2-c2c1c1c(c3c2C(CC)(CC)c2cc(-c4cccs4)ccc2-3)C(CC)(CC)c2cc(-c3cccs3)ccc2-1

SMILES: COc1ccc(-c2sc3c(-c4ccc(OC)cc4)c4n(c3c2-c2ccc(OC)cc2)[B-](F)(F)[N+]2=Cc3c(-c5ccc(OC)cc5)c5sc(-c6ccc(OC)cc6)c(-c6ccc(OC)cc6)c5n3[B-](F)(F)[N+]2=C4)cc1
absorption maximum (in CC#N): 587 nm | absorption maximum (in CCCCCC): 595 nm | absorption maximum (in CN(C)C=O): 593 nm | absorption maximum (in Cc1ccccc1): 610 nm | absorption maximum (in ClCCl): 600 nm

absorption maximum (in CC#N): 350.79 nm
SMILES: C[n+]1ccn(CCCCc2ccc3c(c2)c2ccccc2n3-c2cc(C#N)c(C#N)cc2F)c1

SMILES: Cc1ccc(-n2c3ccccc3c3cc(C=C(C#N)C#N)ccc32)cc1
absorption maximum (in C1CCOC1): 407 nm | absorption maximum (in CC#N): 402 nm | absorption maximum (in CC(C)=O): 402 nm | absorption maximum (in CCOC(C)=O): 400 nm | absorption maximum (in CO): 402 nm | absorption maximum (in CS(C)=O): 407 nm | absorption maximum (in Cc1ccccc1): 406 nm | absorption maximum (in ClC(Cl)Cl): 413 nm

absorption maximum (in CO): 604 nm | absorption maximum (in ClC(Cl)Cl): 610 nm | absorption maximum (in O): 622 nm
SMILES: CC(=O)OCCOCCN1C(=O)c2cc(NCCOCCO)c3c4c(cc(NCCOCCO)c(c24)C1=O)C(=O)N(CCOCCOC(C)=O)C3=O

SMILES: CC1=CC(C)=[N+]2C1=C(c1ccc(-c3c4ccccc4c(-c4ccccc4)c4ccccc34)cc1)c1c(C)cc(C)n1[B-]2(F)F
absorption maximum (in CC#N): 499 nm | absorption maximum (in CCCCCC): 502 nm | absorption maximum (in CCO): 500 nm | absorption maximum (in CN(C)C=O): 500 nm | absorption maximum (in Cc1ccccc1): 504 nm | absorption maximum (in ClCCl): 502 nm

absorption maximum (in C1CCOC1): 335 nm
SMILES: C(=C1c2ccccc2CCc2ccccc21)c1ccc(-c2ccc(C=C3c4ccccc4CCc4ccccc43)cc2)cc1

SMILES: CN(C)c1ccc(/C=C/C=C2\CCCC2=O)cc1
absorption maximum (in CC#N): 409 nm | absorption maximum (in CC(C)=O): 416 nm | absorption maximum (in CC(C)O): 420 nm | absorption maximum (in CCCCCC): 394 nm | absorption maximum (in CCCCO): 425 nm | absorption maximum (in CCCO): 422 nm | absorption maximum (in CCO): 422 nm | absorption maximum (in CCOC(C)=O): 408 nm | absorption maximum (in CCOCC): 399 nm | absorption maximum (in CN(C)C=O): 408 nm | absorption maximum (in CO): 420 nm | absorption maximum (in CS(C)=O): 416 nm | absorption maximum (in Cc1ccccc1): 409 nm | absorption maximum (in ClC(Cl)(Cl)Cl): 407 nm | absorption maximum (in ClC(Cl)Cl): 404 nm | absorption maximum (in ClCCl): 420 nm | absorption maximum (in c1ccccc1): 411 nm | absorption maximum (in c1ccncc1): 419 nm

absorption maximum (in ClCCl): 537 nm
SMILES: COC(=O)/C=C/C1=CC2=C(c3c(C)cc(C)cc3C)c3cccn3[B-](F)(F)[N+]2=C1

SMILES: CC(C)(C)c1ccc(C2=C(c3ccc(C(C)(C)C)cc3)C(c3ccc(C(C)(C)C)cc3)=[N+]3C2=C(c2ccccc2)c2c(-c4ccc(C(C)(C)C)cc4)c(-c4ccc(C(C)(C)C)cc4)c(-c4ccc(C(C)(C)C)cc4)n2[B-]3(F)F)cc1
absorption maximum (in C1CCCCC1): 589 nm | absorption maximum (in C1CCOC1): 585 nm | absorption maximum (in CC#N): 563 nm | absorption maximum (in Cc1ccccc1): 591 nm | absorption maximum (in ClCCl): 579 nm

SMILES: O=C1c2cc(-n3c4ccccc4c4ccccc43)c(-n3c4ccccc4c4ccccc43)cc2C(=O)N1c1ccccc1
absorption maximum (in Cc1ccccc1): 388 nm

SMILES: CC(=O)[B-]1(C(C)=O)OC(c2ccccc2)=CC(c2ccc3ccccc3c2)=[O+]1
absorption maximum (in CC#N): 400 nm | absorption maximum (in ClC(Cl)(Cl)Cl): 400 nm

SMILES: CCn1c2ccccc2c2cc(C#Cc3cc(C#Cc4ccc5c(c4)c4ccccc4n5CC)nc(SC)n3)ccc21
absorption maximum (in C1CCOC1): 396 nm | absorption maximum (in CCOC(C)=O): 392 nm | absorption maximum (in CN(C)C=O): 399 nm | absorption maximum (in Cc1ccccc1): 396 nm | absorption maximum (in ClCCl): 396 nm
